Experimental data: the supplement of paper PMC10307832

Key:
Experiment in all cases: relative viability (nuclei count vs DMSO), 5 days (fraction); higher = more cells survive
H3255 = tested on: H3255
Procedure, shortened: (§1)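 Relative viability is defined as nuclei in treated wells over nuclei in vehicle wells. Duplicate plates were run and medians reported. Lung cancer cell lines in 1536-well plates were dosed by pin tool one day after seeding, with one drug or with a fixed anchor-drug dose plus five library-drug doses (not always all listed) in √10 steps, and nuclei were counted after 5 days.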

NCI-H1734 = tested on: NCI-H1734
Procedure, shortened: as §1

NCI-H3122 = tested on: NCI-H3122
Procedure, shortened: as §1

NCI-H2085 = tested on: NCI-H2085
Procedure, shortened: as §1

NCI-H2023 = tested on: NCI-H2023
Procedure, shortened: as §1

NCI-H2170 = tested on: NCI-H2170
Procedure, shortened: as §1

NCI-H520 = tested on: NCI-H520
Procedure, shortened: as §1

NCI-H2347 = tested on: NCI-H2347
Procedure, shortened: as §1

LOU-NH91 = tested on: LOU-NH91
Procedure, shortened: as §1

NCI-H1993 = tested on: NCI-H1993
Procedure, shortened: as §1

EPLC-272H = tested on: EPLC-272H
Procedure, shortened: as §1

NCI-H2405 = tested on: NCI-H2405
Procedure, shortened: as §1

RERF-LC-KJ = tested on: RERF-LC-KJ
Procedure, shortened: as §1

HCC-44 = tested on: HCC-44
Procedure, shortened: as §1

PC-14 = tested on: PC-14
Procedure, shortened: as §1

NCI-H1650 = tested on: NCI-H1650
Procedure, shortened: as §1

COR-L23 = tested on: COR-L23
Procedure, shortened: as §1

NCI-H647 = tested on: NCI-H647
Procedure, shortened: as §1

201T = tested on: 201T
Procedure, shortened: as §1

NCI-H1563 = tested on: NCI-H1563
Procedure, shortened: as §1

NCI-H441 = tested on: NCI-H441
Procedure, shortened: as §1

`O=C(O)c1ccc(-c2c[nH]c3ncc(-c4ccccc4)cc23)cc1C1CCCC1` + C[C@@H](Oc1cc(-c2cnn(C3CCNCC3)c2)cnc1N)c1c(Cl)ccc(F)c1Cl [Crizotinib] (partner 1 µM) gave a relative viability (H3255; first compound 0.04 µM) of 0.953, a relative viability (H3255; first compound 0.1265 µM) of 0.851 and a relative viability (H3255; first compound 0.4 µM) of 0.825. It also gave a relative viability (H3255; first compound 1.265 µM) of 0.9, a relative viability (NCI-H1734; first compound 0.04 µM) of 0.752 and a relative viability (NCI-H1734; first compound 0.1265 µM) of 0.705. For the same molecule, the relative viability (NCI-H1734; first compound 0.4 µM) was 0.601, the relative viability (NCI-H1734; first compound 1.265 µM) was 0.543 and the relative viability (NCI-H3122; first compound 0.04 µM) was 0.261. The relative viability (NCI-H3122; first compound 0.1265 µM) was 0.245, the relative viability (NCI-H3122; first compound 0.4 µM) was 0.272 and the relative viability (NCI-H3122; first compound 1.265 µM) was 0.319. For the same molecule, the relative viability (NCI-H2085; first compound 0.04 µM) was 0.832, the relative viability (NCI-H2085; first compound 0.1265 µM) was 0.804 and the relative viability (NCI-H2085; first compound 0.4 µM) was 0.878. It also gave a relative viability (NCI-H2085; first compound 1.265 µM) of 0.696, a relative viability (NCI-H2023; first compound 0.04 µM) of 0.639 and a relative viability (NCI-H2023; first compound 0.1265 µM) of 0.669. It also gave a relative viability (NCI-H2023; first compound 0.4 µM) of 0.572, a relative viability (NCI-H2023; first compound 1.265 µM) of 0.603 and a relative viability (NCI-H2170; first compound 0.04 µM) of 1.12. The relative viability (NCI-H2170; first compound 0.1265 µM) was 1.24, the relative viability (NCI-H2170; first compound 0.4 µM) was 1.18 and the relative viability (NCI-H2170; first compound 1.265 µM) was 0.843. The relative viability (NCI-H520; first compound 0.04 µM) was 0.748, the relative viability (NCI-H520; first compound 0.1265 µM) was 1.02 and the relative viability (NCI-H520; first compound 0.4 µM) was 0.744. For the same molecule, the relative viability (NCI-H520; first compound 1.265 µM) was 0.828, the relative viability (NCI-H2347; first compound 0.04 µM) was 0.621 and the relative viability (NCI-H2347; first compound 0.1265 µM) was 0.707. The relative viability (NCI-H2347; first compound 0.4 µM) was 0.642, the relative viability (NCI-H2347; first compound 1.265 µM) was 0.568 and the relative viability (LOU-NH91; first compound 0.04 µM) was 0.725. It also gave a relative viability (LOU-NH91; first compound 0.1265 µM) of 0.771, a relative viability (LOU-NH91; first compound 0.4 µM) of 0.702 and a relative viability (LOU-NH91; first compound 1.265 µM) of 0.782. For the same molecule, the relative viability (NCI-H1993; first compound 0.04 µM) was 0.805, the relative viability (NCI-H1993; first compound 0.4 µM) was 0.805 and the relative viability (NCI-H1993; first compound 1.265 µM) was 0.812. For the same molecule, the relative viability (EPLC-272H; first compound 0.04 µM) was 0.974, the relative viability (EPLC-272H; first compound 0.1265 µM) was 1.01 and the relative viability (EPLC-272H; first compound 0.4 µM) was 0.989. The relative viability (EPLC-272H; first compound 1.265 µM) was 0.655, the relative viability (NCI-H2405; first compound 0.04 µM) was 0.862 and the relative viability (NCI-H2405; first compound 0.1265 µM) was 0.94. For the same molecule, the relative viability (NCI-H2405; first compound 0.4 µM) was 0.841, the relative viability (NCI-H2405; first compound 1.265 µM) was 0.715 and the relative viability (RERF-LC-KJ; first compound 0.04 µM) was 0.795. The relative viability (RERF-LC-KJ; first compound 0.1265 µM) was 0.851, the relative viability (RERF-LC-KJ; first compound 0.4 µM) was 0.823 and the relative viability (RERF-LC-KJ; first compound 1.265 µM) was 0.766. It also gave a relative viability (HCC-44; first compound 0.04 µM) of 0.764, a relative viability (HCC-44; first compound 0.1265 µM) of 0.823 and a relative viability (HCC-44; first compound 0.4 µM) of 0.812. For the same molecule, the relative viability (HCC-44; first compound 1.265 µM) was 0.577, the relative viability (PC-14; first compound 0.04 µM) was 0.931 and the relative viability (PC-14; first compound 0.1265 µM) was 0.849. The relative viability (PC-14; first compound 0.4 µM) was 0.921, the relative viability (PC-14; first compound 1.265 µM) was 0.672 and the relative viability (NCI-H1650; first compound 0.04 µM) was 1.02. It also gave a relative viability (NCI-H1650; first compound 0.1265 µM) of 0.996, a relative viability (NCI-H1650; first compound 0.4 µM) of 0.917 and a relative viability (NCI-H1650; first compound 1.265 µM) of 0.743. The relative viability (COR-L23; first compound 0.04 µM) was 0.584, the relative viability (COR-L23; first compound 0.1265 µM) was 0.508 and the relative viability (COR-L23; first compound 0.4 µM) was 0.681. The relative viability (COR-L23; first compound 1.265 µM) was 0.476, the relative viability (NCI-H647; first compound 0.04 µM) was 1.01 and the relative viability (NCI-H647; first compound 0.1265 µM) was 1.08. For the same molecule, the relative viability (NCI-H647; first compound 0.4 µM) was 0.987, the relative viability (NCI-H647; first compound 1.265 µM) was 0.77 and the relative viability (201T; first compound 0.04 µM) was 1.06. It also gave a relative viability (201T; first compound 0.1265 µM) of 1.04, a relative viability (201T; first compound 0.4 µM) of 0.941 and a relative viability (201T; first compound 1.265 µM) of 0.979. For the same molecule, the relative viability (NCI-H1563; first compound 0.04 µM) was 0.787, the relative viability (NCI-H1563; first compound 0.1265 µM) was 0.91 and the relative viability (NCI-H1563; first compound 0.4 µM) was 0.851. The relative viability (NCI-H1563; first compound 1.265 µM) was 0.875, the relative viability (NCI-H441; first compound 0.04 µM) was 0.601 and the relative viability (NCI-H441; first compound 0.1265 µM) was 0.907. It also gave a relative viability (NCI-H441; first compound 0.4 µM) of 0.689 and a relative viability (NCI-H441; first compound 1.265 µM) of 0.525.
